Assay results reported in ChEMBL document CHEMBL4602695, “Discovery and SARs of 5-Chloro-N4-phenyl-N2-(pyridin-2-yl)pyrimidine-2,4-diamine Derivatives as Oral Available and Dual CDK 6 and 9 Inhibitors with Potent Antitumor Activity” (J Med Chem, 2020).
Active and inactive are the calls of the source. No cut-off for these calls is given here.

What was measured:
[1] = biological target: CDK9/Cyclin K (Homo sapiens) (UniProt P50750+O75909); conditions: Sf9
MCF7 = assay: Antiproliferative activity against human MCF7 cells assessed as inhibition of cell proliferation measured after 48 hrs by CCK8 assay; assay type: functional, cell-based; conditions: MCF7, 48 h
MDA-MB-231 = assay: Antiproliferative activity against human MDA-MB-231 cells assessed as inhibition of cell proliferation measured after 48 hrs by CCK8 assay; assay type: functional, cell-based; conditions: MDA-MB-231, 48 h
CDK2/Cyclin A2 = CDK2/Cyclin A2 (Homo sapiens, UniProt P24941); set-up: species or system Sf9
CDK9/Cyclin K = CDK9/Cyclin K (Homo sapiens, UniProt P50750); assay: biochemical
Sequence of CDK9/Cyclin K (P50750 whole entry): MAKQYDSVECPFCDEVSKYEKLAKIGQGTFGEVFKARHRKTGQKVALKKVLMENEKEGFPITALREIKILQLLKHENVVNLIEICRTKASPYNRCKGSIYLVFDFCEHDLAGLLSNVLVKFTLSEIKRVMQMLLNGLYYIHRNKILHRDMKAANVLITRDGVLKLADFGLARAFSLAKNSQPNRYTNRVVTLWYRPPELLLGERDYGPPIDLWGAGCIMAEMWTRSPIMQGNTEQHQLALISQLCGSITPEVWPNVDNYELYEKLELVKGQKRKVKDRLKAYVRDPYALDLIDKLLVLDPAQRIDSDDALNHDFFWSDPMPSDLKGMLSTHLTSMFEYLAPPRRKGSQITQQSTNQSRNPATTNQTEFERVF
Sequence of CDK9/Cyclin K (O75909 whole entry, further chain): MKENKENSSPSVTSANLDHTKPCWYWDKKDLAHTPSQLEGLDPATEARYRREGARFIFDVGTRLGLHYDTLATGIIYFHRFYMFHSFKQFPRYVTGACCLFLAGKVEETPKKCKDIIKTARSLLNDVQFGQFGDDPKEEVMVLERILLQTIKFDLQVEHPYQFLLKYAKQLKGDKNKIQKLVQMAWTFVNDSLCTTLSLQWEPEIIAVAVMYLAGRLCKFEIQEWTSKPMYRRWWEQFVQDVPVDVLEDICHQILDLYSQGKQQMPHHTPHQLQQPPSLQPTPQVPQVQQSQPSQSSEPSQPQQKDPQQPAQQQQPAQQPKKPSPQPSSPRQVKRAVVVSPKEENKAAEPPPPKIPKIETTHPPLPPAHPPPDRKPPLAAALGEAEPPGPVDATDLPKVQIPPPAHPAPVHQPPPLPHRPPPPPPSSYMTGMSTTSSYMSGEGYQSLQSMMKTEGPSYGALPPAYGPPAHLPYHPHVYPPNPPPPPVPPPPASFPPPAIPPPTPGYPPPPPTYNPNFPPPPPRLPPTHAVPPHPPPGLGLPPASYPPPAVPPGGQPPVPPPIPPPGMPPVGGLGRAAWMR

[2] = Cytotoxicity against human L02 cells assessed as inhibition of cell proliferation measured after 48 hrs by CCK8 assay; assay type: cell-based
Jurkat = assay: Antiproliferative activity against human Jurkat cells assessed as inhibition of cell proliferation measured after 48 hrs by CCK8 assay; assay type: functional, cell-based
CDK6/cyclin D3 = CDK6/cyclin D3 (Homo sapiens, UniProt Q00534); set-up: species or system Sf9
Sequence of CDK6/cyclin D3 (P30281 whole entry): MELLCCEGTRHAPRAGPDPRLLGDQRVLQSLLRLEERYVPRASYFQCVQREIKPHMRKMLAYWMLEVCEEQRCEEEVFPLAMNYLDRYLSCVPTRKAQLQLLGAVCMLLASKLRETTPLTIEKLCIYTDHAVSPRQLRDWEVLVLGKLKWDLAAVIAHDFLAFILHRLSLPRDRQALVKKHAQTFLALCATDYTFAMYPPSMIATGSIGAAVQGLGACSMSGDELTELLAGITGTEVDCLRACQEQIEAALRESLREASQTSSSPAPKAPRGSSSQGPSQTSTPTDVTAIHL
Sequence of CDK6/cyclin D3 (Q00534 whole entry): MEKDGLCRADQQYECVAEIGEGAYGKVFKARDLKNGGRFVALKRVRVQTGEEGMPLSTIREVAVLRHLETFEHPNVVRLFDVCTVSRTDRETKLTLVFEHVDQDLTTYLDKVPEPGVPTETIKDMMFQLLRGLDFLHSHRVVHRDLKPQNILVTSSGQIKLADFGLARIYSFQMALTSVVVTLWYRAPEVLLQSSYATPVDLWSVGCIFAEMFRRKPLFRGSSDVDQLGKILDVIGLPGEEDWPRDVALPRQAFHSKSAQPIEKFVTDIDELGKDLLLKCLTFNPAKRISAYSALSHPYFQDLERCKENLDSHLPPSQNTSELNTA

[3] = Thermodynamic equilibrium solubility in water by HPLC-based shake flask method; assay type: physicochemical; conditions: read-out: Therm_solubility
[4] = Thermodynamic equilibrium solubility in normal saline by HPLC-based shake flask method; assay type: physicochemical; conditions: read-out: Therm_solubility

Structure (SMILES) | inhibition [1] | GI50 (MCF7) | GI50 (MDA-MB-231) | IC50 (CDK2/Cyclin A2) | IC50 (CDK9/Cyclin K) | GI50 at 48 h [2] | GI50 (Jurkat) | IC50 (CDK6/cyclin D3) | solubility thermodynamic [3] | solubility thermodynamic [4]
CN1CCN(c2ccc(Nc3ncc(Cl)c(Nc4ccc(C(F)(F)F)cc4)n3)nc2)CC1 | inactive | – | – | – | – | – | – | – | – | –
COc1ccc(CNc2nc(Nc3ccc(N4CCN(C)CC4)cn3)ncc2Cl)cc1 | – | 17.3 µM | 14.9 µM | > 10 µM | > 10 µM | 12.9 µM | 12.9 µM | 0.64 µM | – | –
COc1cccc(CNc2nc(Nc3ccc(N4CCN(C)CC4)cn3)ncc2Cl)c1 | – | 19.5 µM | 20.3 µM | > 10 µM | 3.29 µM | 16.2 µM | 73.4 µM | 1.6 µM | – | –
CCc1ccc(Nc2nc(Nc3ccc(N4CCN(C)CC4)cn3)ncc2Cl)cc1 | – | 8.23 µM | 5.56 µM | > 10 µM | 6.87 µM | 12.1 µM | 11.1 µM | 0.281 µM | – | –
Cc1ccccc1Nc1nc(NCc2ccncc2)ncc1Cl | – | > 100 µM | > 100 µM | > 10 µM | > 10 µM | > 100 µM | > 100 µM | > 10 µM | – | –
CN1CCN(c2ccc(Nc3ncc(Cl)c(Nc4cccc(F)c4)n3)nc2)CC1 | inactive | – | – | – | – | – | – | – | – | –
CC(C)c1ccc(Nc2nc(Nc3ccc(N4CCN(C)CC4)cn3)ncc2Cl)cc1 | – | 1.88 µM | 7.02 µM | > 10 µM | 9.17 µM | 13.7 µM | 7.53 µM | 0.126 µM | – | –
CCN1CCN(c2ccc(Nc3ncc(Cl)c(Nc4ccccc4C)n3)cc2)CC1 | – | 3.16 µM | 3.04 µM | 0.718 µM | 0.751 µM | 0.97 µM | 2.06 µM | 0.114 µM | – | –
CN1CCN(c2ccc(Nc3ncc(Cl)c(NCc4ccco4)n3)nc2)CC1 | – | 21.3 µM | 11 µM | > 10 µM | > 10 µM | 45.7 µM | > 100 µM | 0.279 µM | – | –
CN1CCN(c2ccc(Nc3ncc(Cl)c(NCc4ccc(F)cc4)n3)nc2)CC1 | – | 19.3 µM | > 100 µM | > 10 µM | > 10 µM | 39.7 µM | > 100 µM | > 10 µM | – | –
Cc1ccccc1Nc1nc(Nc2ccc(N3CCCCC3)cn2)ncc1Cl | – | 21.4 µM | > 100 µM | 4.84 µM | > 10 µM | 42.4 µM | > 100 µM | > 10 µM | – | –
Cc1cccc(Nc2nc(Nc3ccc(N4CCN(C)CC4)cn3)ncc2Cl)c1 | – | 7.16 µM | 5.27 µM | > 10 µM | 0.431 µM | 6.08 µM | 15.3 µM | 0.08 µM | – | –
CC(=O)Nc1cccc(Nc2nc(Nc3ccc(N4CCN(C)CC4)cn3)ncc2Cl)c1.Cl | – | – | – | – | – | – | – | – | 7700 µg/mL | 3960 µg/mL
Cc1ccccc1Nc1nc(Nc2ccc(N3CCN(C)CC3)cc2)ncc1Cl | – | 20.6 µM | 7.02 µM | 1.19 µM | 0.434 µM | 6.51 µM | 13.7 µM | 0.143 µM | – | –
Cc1ccccc1Nc1nc(Nc2ccc(N3CCNCC3)cn2)ncc1Cl | – | 3.41 µM | 5.06 µM | 2.06 µM | 0.114 µM | 1.85 µM | 7.87 µM | 0.042 µM | – | –
